Data set [1] concerns the target T1, Muscarinic acetylcholine receptor M1 (Homo sapiens, UniProt P11229).
T1 sequence (P11229 whole entry): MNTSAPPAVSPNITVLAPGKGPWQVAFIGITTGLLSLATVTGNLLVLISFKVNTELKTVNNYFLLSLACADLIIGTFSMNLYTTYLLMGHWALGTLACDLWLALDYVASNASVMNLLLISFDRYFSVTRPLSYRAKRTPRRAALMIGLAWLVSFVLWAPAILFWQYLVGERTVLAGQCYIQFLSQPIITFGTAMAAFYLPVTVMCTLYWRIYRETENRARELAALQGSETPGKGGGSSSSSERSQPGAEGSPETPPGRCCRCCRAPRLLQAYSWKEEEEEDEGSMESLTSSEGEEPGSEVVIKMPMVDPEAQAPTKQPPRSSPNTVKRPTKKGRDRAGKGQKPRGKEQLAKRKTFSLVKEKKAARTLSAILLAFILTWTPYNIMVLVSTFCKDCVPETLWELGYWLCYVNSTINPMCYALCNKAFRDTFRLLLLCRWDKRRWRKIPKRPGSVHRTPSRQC
As to the kind of experiment: Inhibition of M1 receptor.

The next data set concerns the target Cytochrome P450 3A4 (Homo sapiens, UniProt P08684). As to the kind of experiment: Inhibition of CYP3A4. The class given is ADME.
The target of data set [2] is Voltage-gated inwardly rectifying potassium channel KCNH2 (Homo sapiens, UniProt Q12809). The data set is described as follows: Inhibition of human ERG by dofetilide binding assay.
The species entered for data set [3] is Rattus norvegicus. The data set is described as follows: animal or person. Conditions: po, 5 h, read-out: INH.
Data set [4] is described as follows: Intrinsic clearance in rat liver microsome. It is filed as ADME. Conditions: liver microsomes, read-out: CLH. In general terms: Liver microsomes are a subcellular fraction often used to study metabolism.
The nature of data set [5]: Permeability from apical side to basal side of human Caco2 cells. The following applies: Caco-2. For orientation: Passage across Caco-2 layers is used to estimate intestinal permeability.
Data set [6] deals with Rattus norvegicus. As to the kind of experiment: Ex-vivo inhibition of DPP4 in Wistar rat at 3 mg/kg, po up to 8 hrs post-administration. The class given is functional.
A short description of data set [7]: Inhibition of Cytochrome P450. It is filed as ADME.
A short description of data set [8]: Clearance in rat at 1 mg/kg, iv. It is filed as ADME, organism-based. The arrangement: dose 1 mg/kg, route intravenous. The following applies: in vivo.
The nature of data set [9]: Oral bioavailability in rat. It is filed as ADME, organism-based. Conditions: in vivo.
Data set [10] is described as follows: Cmax in rat. The class given is ADME, organism-based. Conditions: in vivo.
Data set [11] is described as follows: AUC in rat. The class given is ADME, organism-based. The following applies: plasma.

Cytochrome P450 3A4, sequence (P08684 whole entry): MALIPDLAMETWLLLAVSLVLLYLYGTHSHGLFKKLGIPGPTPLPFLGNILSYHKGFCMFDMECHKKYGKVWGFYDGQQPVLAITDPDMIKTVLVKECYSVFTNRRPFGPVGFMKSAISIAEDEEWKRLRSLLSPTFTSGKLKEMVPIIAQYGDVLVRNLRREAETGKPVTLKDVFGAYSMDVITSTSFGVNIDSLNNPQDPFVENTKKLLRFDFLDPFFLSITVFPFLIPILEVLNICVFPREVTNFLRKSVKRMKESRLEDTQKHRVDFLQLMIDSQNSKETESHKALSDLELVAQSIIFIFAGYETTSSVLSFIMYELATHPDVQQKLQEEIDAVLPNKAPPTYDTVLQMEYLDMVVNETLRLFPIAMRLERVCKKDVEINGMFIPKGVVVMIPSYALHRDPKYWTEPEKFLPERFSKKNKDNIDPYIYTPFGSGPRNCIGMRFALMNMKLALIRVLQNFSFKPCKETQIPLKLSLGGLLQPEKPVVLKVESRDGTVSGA
Voltage-gated inwardly rectifying potassium channel KCNH2, sequence (Q12809 whole entry): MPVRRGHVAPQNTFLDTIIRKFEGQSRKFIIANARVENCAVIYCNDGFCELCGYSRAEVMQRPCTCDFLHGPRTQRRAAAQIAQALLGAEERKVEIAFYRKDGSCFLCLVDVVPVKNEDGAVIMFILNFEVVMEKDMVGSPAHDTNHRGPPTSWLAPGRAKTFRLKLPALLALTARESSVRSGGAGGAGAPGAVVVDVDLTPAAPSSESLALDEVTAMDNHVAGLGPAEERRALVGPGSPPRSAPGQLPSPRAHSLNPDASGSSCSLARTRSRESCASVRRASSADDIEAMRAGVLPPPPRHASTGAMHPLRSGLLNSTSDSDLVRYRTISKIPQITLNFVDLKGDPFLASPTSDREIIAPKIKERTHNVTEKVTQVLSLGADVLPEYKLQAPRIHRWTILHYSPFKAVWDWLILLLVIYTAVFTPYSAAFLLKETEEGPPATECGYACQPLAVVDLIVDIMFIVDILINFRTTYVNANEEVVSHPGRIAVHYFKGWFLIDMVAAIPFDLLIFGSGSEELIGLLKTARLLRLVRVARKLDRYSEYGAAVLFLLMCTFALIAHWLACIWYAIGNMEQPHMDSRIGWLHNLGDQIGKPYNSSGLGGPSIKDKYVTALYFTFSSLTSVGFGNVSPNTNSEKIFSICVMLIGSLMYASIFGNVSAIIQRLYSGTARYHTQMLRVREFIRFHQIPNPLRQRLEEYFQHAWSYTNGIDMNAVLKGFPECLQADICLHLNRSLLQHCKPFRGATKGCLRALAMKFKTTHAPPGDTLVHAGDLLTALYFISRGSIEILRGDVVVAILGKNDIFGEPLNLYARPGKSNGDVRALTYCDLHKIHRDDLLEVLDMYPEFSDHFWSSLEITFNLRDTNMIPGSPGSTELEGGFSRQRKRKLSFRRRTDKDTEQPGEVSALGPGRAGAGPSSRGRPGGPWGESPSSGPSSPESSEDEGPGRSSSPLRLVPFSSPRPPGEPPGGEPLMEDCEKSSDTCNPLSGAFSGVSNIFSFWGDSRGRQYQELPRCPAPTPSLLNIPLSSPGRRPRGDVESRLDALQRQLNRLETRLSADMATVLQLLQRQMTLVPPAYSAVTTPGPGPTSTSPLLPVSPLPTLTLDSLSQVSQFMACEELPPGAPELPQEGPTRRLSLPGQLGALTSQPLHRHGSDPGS

Take `CC(C)=CCn1c(N2CCCNCC2)c(C#N)c2c1c(=O)n(Cc1c(C#N)cnc3ccccc13)c(=O)n2C`: the IC50 (commonly the concentration needed to halve the response being measured) in data set [1] is greater than 10 µM; at Cytochrome P450 3A4, no more than 3 µM; in data set [2], 0.9 µM. Turning to `CC#CCn1c(N2CCCNCC2)c(C#N)c2c1c(=O)n(Cc1ncc3ccccc3c1C#N)c(=O)n2C`, the IC50 in data set [1] was greater than 10 µM; in data set [2] it was 12 µM.

Regarding `Cn1cnc2c(C#N)c(N3CCNCC3)n(Cc3ccccc3)c2c1=O`, the IC50 in [1] is greater than 10 µM.

On to `COc1cccc(C(=O)Cn2cnc3c(C#N)c(N4CCNCC4)n(Cc4ccccc4)c3c2=O)c1`, for which the IC50 in data set [1] is greater than 10 µM.

On to `CC#CCn1c(N2CCNCC2)c(C#N)c2ncn(CC(=O)c3cccc(OC)c3)c(=O)c21`, for which the IC50 in [1] is greater than 10 µM. The same measure, in the same setting: the figure for `COc1cccc(C(=O)Cn2cnc3c(C#N)c(N4CCNCC4)n(CC=C(C)C)c3c2=O)c1` is greater than 10 µM; for `Cn1cnc2c(C#N)c(N3CCC[C@H](N)C3)n(Cc3ccccc3)c2c1=O` it is greater than 10 µM; for `COc1cccc(C(=O)Cn2cnc3c(C#N)c(N4CCC[C@@H](N)C4)n(Cc4ccccc4)c3c2=O)c1` it is greater than 10 µM. `COc1cccc(C(=O)Cn2cnc3c(C#N)c(N4CCC[C@H](N)C4)n(Cc4ccccc4)c3c2=O)c1` registered an IC50 in data set [1] greater than 10 µM. In turn, `N#Cc1c(N2CCC[C@H](N)C2)n(Cc2ccccc2)c2c(=O)n(Cc3ccnc4ccccc34)cnc12` showed an IC50 in data set [1] greater than 10 µM. On the same count and under the same terms, under `CC#CCn1c(N2CCC[C@@H](N)C2)c(C#N)c2ncn(CC(=O)c3cccc(OC)c3)c(=O)c21` stands greater than 10 µM; under `CC#CCn1c(N2CCC[C@H](N)C2)c(C#N)c2ncn(CC(=O)c3cccc(OC)c3)c(=O)c21`, greater than 10 µM. Still for that read-out and setting: under `CC#CCn1c(N2CCC[C@H](N)C2)c(C#N)c2ncn(Cc3ccnc4ccccc34)c(=O)c21` stands greater than 10 µM.

For `CC#CCn1c(N2CCC[C@H](N)C2)c(C#N)c2ncn(Cc3nccc4ccccc34)c(=O)c21`, the IC50 in data set [1] is greater than 10 µM. In data set [1], `COc1cccc(C(=O)Cn2cnc3c(C#N)c(N4CCC[C@@H](N)C4)n(CC=C(C)C)c3c2=O)c1` had an IC50 greater than 10 µM.

Take `COc1cccc(C(=O)Cn2cnc3c(C#N)c(N4CCC[C@H](N)C4)n(CC=C(C)C)c3c2=O)c1`: the IC50 in [1] is greater than 10 µM. The same measure, in the same setting: the figure for `CC(C)=CCn1c(N2CCC[C@H](N)C2)c(C#N)c2ncn(Cc3ccnc4ccccc34)c(=O)c21` is greater than 10 µM. For `CC(C)=CCn1c(N2CCC[C@H](N)C2)c(C#N)c2ncn(Cc3nccc4ccccc34)c(=O)c21`, the IC50 in data set [1] is greater than 10 µM. Besides, the inhibition in vivo at 3 mg/kg in the data set listed under Rattus norvegicus [3] came to 60%. The compound `CC(C)=CCn1c(N2CCC[C@H](N)C2)c(C#N)c2ncn(Cc3nc(C)c4ccccc4n3)c(=O)c21` displayed an IC50 in data set [1] greater than 10 µM. In the case of `CC(C)=CCn1c(N2CCC[C@H](N)C2)c(C#N)c2ncn(Cc3ncc4ccccc4n3)c(=O)c21`, the IC50 in data set [1] was greater than 10 µM. The CLint scaled in data set [4] was 67 mL/min/kg. As for `CC(C)=CCn1c(N2CCC[C@H](N)C2)c(C#N)c2ncn(C)c(=O)c21`, in data set [1], the IC50 was greater than 10 µM. Compound `N#Cc1c(N2CCCNCC2)n(Cc2ccccc2)c2c(=O)n(Cc3nccc4ccccc34)cnc12` showed an IC50 in data set [1] greater than 10 µM.

In turn, `CC(C)=CCn1c(N2CCCNCC2)c(C#N)c2ncn(Cc3nccc4ccccc34)c(=O)c21` came in with an IC50 in data set [1] greater than 10 µM. Still for that read-out and setting: the figure for `CC#CCn1c(N2CCCNCC2)c(C#N)c2ncn(Cc3nccc4ccccc34)c(=O)c21` is greater than 10 µM. The compound `CC#CCn1c(N2CCCNCC2)c(C#N)c2ncn(Cc3nc(C)c4ccccc4n3)c(=O)c21` gave a 50% inhibitory concentration (IC50) in data set [1] greater than 10 µM. For the same compound, the apical-to-basolateral permeability (Papp A→B) (usually how fast a substance crosses the layer from the apical side) in data set [5] came to 1.7 ×10⁻⁶ cm/s. The corresponding values for `CC#CCn1c(N2CCCNCC2)c(C#N)c2ncn(Cc3ncc4ccccc4n3)c(=O)c21` are greater than 10 µM and 0.6 ×10⁻⁶ cm/s.

For `COc1cccc(C(=O)Cn2c(=O)c3c(c(C#N)c(N4CCC[C@H](N)C4)n3Cc3ccccc3)n(C)c2=O)c1`, the IC50 in data set [1] is greater than 10 µM. As to `Cn1c(=O)n(Cc2nccc3ccccc23)c(=O)c2c1c(C#N)c(N1CCC[C@H](N)C1)n2Cc1ccccc1`, the results for the IC50 (in [1]; against Cytochrome P450 3A4; in [2]) were greater than 10 µM, no more than 3 µM and 2.8 µM, respectively. The compound `Cn1c(=O)c2c(c(C#N)c(N3CCC[C@H](N)C3)n2Cc2ccccc2)n(C)c1=O` came in with an IC50 in data set [1] greater than 10 µM. For `COc1cccc(C(=O)Cn2c(=O)c3c(c(C#N)c(N4CCC[C@H](N)C4)n3CC=C(C)C)n(C)c2=O)c1`, the figures for the IC50 (in [1]; against Cytochrome P450 3A4; in data set [2]) were greater than 10 µM, no more than 3 µM and 1.6 µM, respectively. With `CC(C)=CCn1c(N2CCC[C@H](N)C2)c(C#N)c2c1c(=O)n(Cc1nccc3ccccc13)c(=O)n2C`, the IC50 in [1] was greater than 10 µM.

`CC(C)=CCn1c(N2CCC[C@H](N)C2)c(C#N)c2c1c(=O)n(Cc1nc(C)c3ccccc3n1)c(=O)n2C`: the IC50 in data set [1] was greater than 10 µM; against Cytochrome P450 3A4, no more than 3 µM; in [2], 6.7 µM. Take `CC(C)=CCn1c(N2CCC[C@H](N)C2)c(C#N)c2c1c(=O)n(Cc1cnc3ccccc3n1)c(=O)n2C`: the results for the IC50 (in data set [1]; against Cytochrome P450 3A4) were greater than 10 µM and no more than 3 µM, respectively. `CC(C)=CCn1c(N2CCC[C@H](N)C2)c(C#N)c2c1c(=O)n(Cc1ncccc1C#N)c(=O)n2C`: the IC50 in [1] was greater than 10 µM; against Cytochrome P450 3A4, no more than 3 µM; in data set [2], 16.9 µM.

`CC#CCn1c(N2CCC[C@H](N)C2)c(C#N)c2c1c(=O)n(CC(=O)c1cccc(OC)c1)c(=O)n2C` gave an IC50 in data set [1] greater than 10 µM. `CC#CCn1c(N2CCC[C@H](N)C2)c(C#N)c2c1c(=O)n(Cc1nccc3ccccc13)c(=O)n2C`: the IC50 in data set [1] is greater than 10 µM; in data set [2], 28.2 µM.

In the case of `CC#CCn1c(N2CCC[C@@H](N)C2)c(C#N)c2c1c(=O)n(Cc1nc(C)c3ccccc3n1)c(=O)n2C`, the IC50 in data set [1] is greater than 10 µM; in [2], 21.7 µM. As for `CC#CCn1c(N2CCC[C@H](N)C2)c(C#N)c2c1c(=O)n(Cc1nc(C)c3ccccc3n1)c(=O)n2C`, the IC50 is greater than 10 µM in [1] and greater than 30 µM in data set [2]. With `COc1cccc(C(=O)Cn2c(=O)c3c(c(C#N)c(N4CCCNCC4)n3CC=C(C)C)n(C)c2=O)c1`, the IC50 in data set [1] was greater than 10 µM; against Cytochrome P450 3A4 it was no more than 3 µM; in data set [2], 1.1 µM. For the compound `CC(C)=CCn1c(N2CCCNCC2)c(C#N)c2c1c(=O)n(Cc1nccc3ccccc13)c(=O)n2C`, the IC50 in data set [1] was greater than 10 µM.

For `CC(C)=CCn1c(N2CCCNCC2)c(C#N)c2c1c(=O)n(Cc1nc(C)c3ccccc3n1)c(=O)n2C`, the IC50 in [1] is greater than 10 µM; against Cytochrome P450 3A4 it was no more than 3 µM.

In the case of `CC(C)=CCn1c(N2CCCNCC2)c(C#N)c2c1c(=O)n(Cc1cn3ccccc3n1)c(=O)n2C`, the IC50 in data set [1] was greater than 10 µM; at Cytochrome P450 3A4, no more than 3 µM. With `CC(C)=CCn1c(N2CCCNCC2)c(C#N)c2c1c(=O)n(Cc1ncc3ccccc3c1C#N)c(=O)n2C`, the IC50 in [1] was greater than 10 µM; at Cytochrome P450 3A4, no more than 3 µM; in [2] it was 1.8 µM. Take `CC#CCn1c(N2CCCNCC2)c(C#N)c2c1c(=O)n(Cc1nccc3ccccc13)c(=O)n2C`: the IC50 in [1] was greater than 10 µM. The compound further yielded an inhibition in vivo at 3 mg/kg in the data set with Rattus norvegicus [6] of no less than 70%. Take `CC#CCn1c(N2CCCNCC2)c(C#N)c2c1c(=O)n(Cc1nc(C)c3ccccc3n1)c(=O)n2C`: in data set [1], the IC50 is greater than 10 µM.

Regarding `CC#CCn1c(N2CCCNCC2)c(C#N)c2c1c(=O)n(Cc1c(C#N)cnc3ccccc13)c(=O)n2C`, the IC50 in [1] is greater than 10 µM; on Cytochrome P450 3A4 it was no less than 10 µM; in [7], greater than 10 µM. Consider `CC#CCn1c(N2CCC[C@@H](N)C2)nc2c1c(=O)n(Cc1nc(C)c3ccccc3n1)c(=O)n2C` [LINAGLIPTIN], for which the clearance (commonly a measure of how efficiently the substance is removed, as volume per time) in [8] is 34 mL/min/kg. The bioavailability – broadly, dose-corrected exposure relative to a reference, in per cent – in data set [9] was 9%. The peak level in [10] (Cmax) was 21 nM. Besides, in data set [5], the Papp A→B is 0.8 ×10⁻⁶ cm/s. For the same compound, the AUC (as a rule, the area under the concentration-time curve, a measure of exposure) in data set [11] was 0.185 µM·h.
